# Read-outs that look alike come from different tables or passages of the source.
# Assays:
# human RORγ LBD = molecular target: T1, human RORγ LBD (Homo sapiens, UniProt P51449); test: RORγt-LBD co-activator ligand binding TR-FRET assay, human; settings: n = 15
# T1 construct: RORC-LBD region 229-497aa; made in house; host or cells: Escherichia coli BL21-DE3
# Description: (§1) To identify small molecule RORγ inhibitors, we conducted in vitro screening using a TR-FRET binding assay to determine the inhibition of RORγ with a series of different compounds. With extensive effort and from hit identification to lead optimization, PCCR-1 was identified[29] (Fig. 1A). Based on the homology of the ligand binding domains (LBD) between different ROR isoforms (hRORα, hRORβ and hRORγ), slight variations have been observed in the LBD regions which possibly lead to differences in competitive binding between the isoforms (Fig. 1B). Simultaneous binding of a tracer and antibody results in an increase in fluorescence resonance energy transfer (FRET), which decreases with displacement of the tracer upon inhibitor binding.
# (§2) The human and mouse RORγt cDNA clones were obtained from OriGene (MD USA). […] The next day, plate was read on Infinite F500 reader (Magellan Tecan Switzerland). […] The percent activity of each dilution was determined as the ratio of background corrected signal to the background corrected signal of wells receiving only DMSO. IC50 values were determined by fitting percent inhibition data in GraphPad Prism (version-5.01) software.
# mouse RORγ LBD = molecular target: T2, mouse RORγ LBD (Mus musculus, UniProt P51450); test: RORγt-LBD co-activator ligand binding TR-FRET assay, mouse; settings: n = 6
# T2 construct: RORγt-LBD region 264-516aa; made in house
# T2 sequence (P51450 264-516): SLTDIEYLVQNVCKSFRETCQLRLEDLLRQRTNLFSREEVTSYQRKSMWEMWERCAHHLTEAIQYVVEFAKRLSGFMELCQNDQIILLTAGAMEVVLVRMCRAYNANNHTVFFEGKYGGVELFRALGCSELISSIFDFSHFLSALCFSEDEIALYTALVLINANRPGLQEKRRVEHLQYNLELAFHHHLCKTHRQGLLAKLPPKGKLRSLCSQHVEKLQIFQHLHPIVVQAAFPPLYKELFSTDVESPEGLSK
# Description: as §1, §2
# LXRβ = tested on: T3, LXRβ; test: TR-FRET selectivity binding assay, LXRβ
# T3 construct: purchased Invitrogen
# Description: (§3) Based on the homology of the ligand binding domains, 3 different isoforms of ROR (hRORα, hRORβ and hRORγ) are reported. Small variations in the LBD regions possibly lead to differences in competitive binding between the nuclear receptors of the ROR isoforms (Fig. 1b). Similar to the assessment of RORγ binding assay, TR-FRET binding assays were also used to assess the affinity of PCCR-1 for other ROR isoforms. […] This was reconfirmed in cellular functional assays for the selected isoforms and nuclear receptors using Gal4 DBD with luciferase reporter system from Indigo (PA, USA). […] In addition, both cellular agonist and antagonist effects as well as for enzyme activity were evaluated with a known reference compound for each target, using a radiolabeled method (Eurofins Cerep, France, Table 1).
# For selectivity, the ROR isoforms RORα, FXR, LXRα, LXRβ, RXR, RARα were incubated with compound for 60 min at 22 °C followed by detection mix containing respective agonist (All trans retinoic acid for RARα, T0901317 for LXRα, LXRβ, 9-cis Retinoic acid for RXR, GW-4064 for FXR) and coactivator peptide (FD22 for RORα, PGC1α for RXR, RARα, TRAP220 for LXRα, LXRβ, SRC2-2 for FXR) and Tb-anti GST antibody prepared in assay buffer were added into a 384-well white plate. Reading taken after overnight incubation and the data analysis done as per the protocol mentioned in RORγt-LBD and co-activator ligand binding assay.
# Alpha 1A = molecular target: T4, Alpha 1A (Homo sapiens, UniProt P35348); test: Cerep panel, Alpha 1A (antagonist); assay type: cell-based; settings: read-out: IC50 Alpha 1A (antg)
# T4 construct: Eurofins Cerep
# T4 sequence (P35348 whole entry): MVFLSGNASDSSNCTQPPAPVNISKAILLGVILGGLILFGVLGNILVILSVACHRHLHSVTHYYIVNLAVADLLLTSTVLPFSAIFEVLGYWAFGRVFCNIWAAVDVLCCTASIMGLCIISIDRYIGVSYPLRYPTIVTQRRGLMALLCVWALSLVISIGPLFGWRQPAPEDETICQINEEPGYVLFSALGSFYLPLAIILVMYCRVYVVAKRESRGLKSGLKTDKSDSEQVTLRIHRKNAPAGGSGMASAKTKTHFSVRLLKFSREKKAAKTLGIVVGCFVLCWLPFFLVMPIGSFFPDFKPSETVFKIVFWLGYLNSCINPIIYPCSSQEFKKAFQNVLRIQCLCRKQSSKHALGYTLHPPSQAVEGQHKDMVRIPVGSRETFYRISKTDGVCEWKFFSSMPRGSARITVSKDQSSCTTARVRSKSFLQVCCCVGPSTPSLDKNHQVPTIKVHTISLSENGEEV
# Description: as §3
# Alpha 1D = molecular target: T5, Alpha 1D (Homo sapiens, UniProt P25100); test: Cerep panel, Alpha 1D
# T5 construct: Eurofins Cerep
# T5 sequence (P25100 whole entry): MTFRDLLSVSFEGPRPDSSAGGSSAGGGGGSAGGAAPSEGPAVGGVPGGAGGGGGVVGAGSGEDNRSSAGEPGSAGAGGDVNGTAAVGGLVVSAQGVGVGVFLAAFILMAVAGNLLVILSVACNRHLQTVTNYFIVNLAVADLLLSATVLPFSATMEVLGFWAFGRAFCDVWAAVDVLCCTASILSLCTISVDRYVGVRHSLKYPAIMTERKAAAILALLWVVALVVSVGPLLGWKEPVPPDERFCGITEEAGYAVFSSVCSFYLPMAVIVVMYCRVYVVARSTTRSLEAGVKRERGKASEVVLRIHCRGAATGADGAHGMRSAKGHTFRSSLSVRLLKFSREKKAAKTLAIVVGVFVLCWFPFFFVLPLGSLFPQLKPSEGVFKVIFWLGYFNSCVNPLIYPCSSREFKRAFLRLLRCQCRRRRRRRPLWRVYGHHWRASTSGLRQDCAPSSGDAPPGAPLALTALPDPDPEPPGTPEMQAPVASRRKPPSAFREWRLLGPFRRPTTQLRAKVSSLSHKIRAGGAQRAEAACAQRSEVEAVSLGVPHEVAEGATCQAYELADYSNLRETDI
# Description: as §3
# [1] = tested on: IL-17A in human whole blood; test: IL-17A inhibition, human whole blood, TCR stimulation; assay type: cell-based; settings: TCR stimulatory conditions, n = 10
# Protocol: For whole blood assay the heparinized whole blood was diluted (1:1) with saline and added in 96-well plate pre-coated with human anti-CD3 mAb (10 µg/mL). Compound treatment was done for 30 min followed by co-stimulation with anti-CD28 mAb (2 µg/mL). After 48 h of incubation supernatant was used for IL-17 estimation by ELISA.
# [2] = Drug concentrations on day-8 in CS-model mice after 7-day intranasal treatment; assay type: in vivo; settings: C57BL/6, mouse, other: intranasal; for concentration at 1 h: CS exposed mice
# Protocol: Additionally, after 7-day intranasal treatment with PCCR-1 in the CS-model in mice as described above, blood, BAL fluid and lung tissues were collected on day-8 approximately 1 h after the last treatment dose for estimating the drug concentrations for PK-PD correlation.
# T1 sequence (P51449 250-518): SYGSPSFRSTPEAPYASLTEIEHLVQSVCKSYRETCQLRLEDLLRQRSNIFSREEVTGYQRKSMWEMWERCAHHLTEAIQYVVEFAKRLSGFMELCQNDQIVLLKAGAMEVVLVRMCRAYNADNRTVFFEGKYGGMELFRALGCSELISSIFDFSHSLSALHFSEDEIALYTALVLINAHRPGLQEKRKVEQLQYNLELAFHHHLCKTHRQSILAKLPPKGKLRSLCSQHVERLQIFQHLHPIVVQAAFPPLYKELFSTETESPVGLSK
smiles,measurement,setting,value
CCn1c(C(C)(C)Oc2ccc(F)cc2F)nc2cc(NC(=O)Cc3ccc(S(=O)(=O)CC)cc3)ccc21 [PCCR-1],IC50,human RORγ LBD,34.5 nM
same,IC50,mouse RORγ LBD,778 nM
same,% Inhibition LXRβ,LXRβ; 1 µM,28.11%
same,% Inhibition LXRβ,LXRβ; 10 µM,46.66%
same,"Fold over hRORγ, LXRβ",LXRβ; vs RORg IC50 31.87 nM,> 313.7 fold
same,IC50,Alpha 1A,190 nM
same,IC50,Alpha 1D,550 nM
same,IC50,[1],3050 nM
same,concentration at 1 h,"[2]; BAL fluid, day-8, intranasal 1 µg/animal, read-out: Total concentration BAL fluid",25.7 nM
same,concentration at 1 h,"[2]; BAL fluid, day-8, intranasal 10 µg/animal, read-out: Total concentration BAL fluid",160 nM
same,concentration at 1 h,"[2]; BAL fluid, day-8, intranasal 30 µg/animal, read-out: Total concentration BAL fluid",390 nM
same,concentration at 1 h,"[2]; BAL fluid, day-8, intranasal 50 µg/animal, read-out: Total concentration BAL fluid",779 nM
same,concentration at 1 h,"[2]; BAL fluid, day-8, intranasal 100 µg/animal, read-out: Total concentration BAL fluid",1320 nM
same,concentration at 1 h,"[2]; lung, day-8, intranasal 1 µg/animal, read-out: Total concentration Lung",5480 nM
same,concentration at 1 h,"[2]; lung, day-8, intranasal 10 µg/animal, read-out: Total concentration Lung",53600 nM
same,concentration at 1 h,"[2]; lung, day-8, intranasal 30 µg/animal, read-out: Total concentration Lung",171000 nM
same,concentration at 1 h,"[2]; lung, day-8, intranasal 50 µg/animal, read-out: Total concentration Lung",379000 nM
same,concentration at 1 h,"[2]; lung, day-8, intranasal 100 µg/animal, read-out: Total concentration Lung",608000 nM
same,Kp at 1 h,"[2]; lung/plasma, CS-model mice, 7-day intranasal treatment, all tested doses (1 to 100 µg), read-out: concentration in lung as compared to the plasma",> 1000
same,concentration at 1 h,"[2]; plasma, day-8, intranasal 1 µg/animal, read-out: Total concentration Plasma",< 1.85 nM
same,concentration at 1 h,"[2]; plasma, day-8, intranasal 10 µg/animal, read-out: Total concentration Plasma",< 1.85 nM
same,concentration at 1 h,"[2]; plasma, day-8, intranasal 30 µg/animal, read-out: Total concentration Plasma",20.6 nM
same,concentration at 1 h,"[2]; plasma, day-8, intranasal 50 µg/animal, read-out: Total concentration Plasma",33.2 nM
same,concentration at 1 h,"[2]; plasma, day-8, intranasal 100 µg/animal, read-out: Total concentration Plasma",84.7 nM

# From publication PMC9130233, “An inhibitor of RORγ for chronic pulmonary obstructive disease treatment” (Scientific Reports, 2022)
